From PMC12136037, “Type II kinase inhibitors that target Parkinson’s disease–associated LRRK2” (Science Advances, 2025)

Columns and labels:
Test in all cases: DSF 100 kinase selectivity screen;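 further: compound tested at 20 µM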
Format in all cases: binding
[1] = biological target: T1, ~100 representative kinases (Homo sapiens, UniProt P49761); details: Protein CLK3; average of three replicates
T1 construct: Recombinant protein kinase domains with a concentration of 2 μM
Description: (§1) Recombinant protein kinase domains with a concentration of 2 μM were mixed with a 20 μM compound solution in dimethyl sulfoxide (DMSO), 20 mM Hepes (pH 7.5), and 500 mM NaCl. SYPRO Orange (5000×, Invitrogen) was added as a fluorescence probe (1μl/ml). Subsequently, temperature-dependent protein unfolding profiles were measured using the QuantStudio 5 realtime PCR machine (Thermo Fisher Scientific, Waltham, MA, USA). […] The temperature was raised with a step rate of 3°C/min. […] Differences in melting temperature are given as ΔTm values in degrees Celsius. […]

[2] = biological target: T2, ~100 representative kinases (Homo sapiens, UniProt O15075); details: Protein DCAMKL1; average of three replicates
T2 construct: Recombinant protein kinase domains with a concentration of 2 μM
Description: as §1

[3] = biological target: T3, ~100 representative kinases (Homo sapiens, UniProt P00519); details: Protein ABL1; average of three replicates
T3 construct: Recombinant protein kinase domains with a concentration of 2 μM
Description: as §1

[4] = biological target: T4, ~100 representative kinases (Homo sapiens, UniProt Q96L34); details: protein MARK4; average of three replicates
T4 construct: Recombinant protein kinase domains with a concentration of 2 μM
T4 sequence (Q96L34 1-752): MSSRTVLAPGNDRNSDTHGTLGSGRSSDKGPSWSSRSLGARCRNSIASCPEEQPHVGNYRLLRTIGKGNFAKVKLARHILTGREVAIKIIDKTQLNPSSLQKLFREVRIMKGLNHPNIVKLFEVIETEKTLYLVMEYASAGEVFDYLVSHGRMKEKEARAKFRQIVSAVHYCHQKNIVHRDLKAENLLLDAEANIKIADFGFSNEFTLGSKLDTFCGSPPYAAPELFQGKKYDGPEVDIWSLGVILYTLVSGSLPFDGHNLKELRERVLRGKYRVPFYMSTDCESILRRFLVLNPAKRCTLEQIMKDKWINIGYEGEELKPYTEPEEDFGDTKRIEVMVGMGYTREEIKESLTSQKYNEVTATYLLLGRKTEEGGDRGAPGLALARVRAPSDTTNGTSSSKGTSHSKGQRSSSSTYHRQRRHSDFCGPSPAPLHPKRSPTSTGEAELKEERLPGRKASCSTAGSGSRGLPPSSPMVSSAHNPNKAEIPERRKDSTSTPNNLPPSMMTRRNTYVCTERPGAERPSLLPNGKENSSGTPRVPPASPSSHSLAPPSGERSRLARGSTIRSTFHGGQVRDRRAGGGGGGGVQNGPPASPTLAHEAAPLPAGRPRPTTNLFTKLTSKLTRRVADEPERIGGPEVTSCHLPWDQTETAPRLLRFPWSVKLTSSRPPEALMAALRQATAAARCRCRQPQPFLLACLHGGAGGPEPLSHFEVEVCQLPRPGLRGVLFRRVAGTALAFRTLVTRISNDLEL
Description: as §1

[5] = biological target: T5, ~100 representative kinases (Homo sapiens, UniProt O00444); details: protein PLK4; average of three replicates
T5 construct: Recombinant protein kinase domains with a concentration of 2 μM
T5 sequence (O00444 1-970): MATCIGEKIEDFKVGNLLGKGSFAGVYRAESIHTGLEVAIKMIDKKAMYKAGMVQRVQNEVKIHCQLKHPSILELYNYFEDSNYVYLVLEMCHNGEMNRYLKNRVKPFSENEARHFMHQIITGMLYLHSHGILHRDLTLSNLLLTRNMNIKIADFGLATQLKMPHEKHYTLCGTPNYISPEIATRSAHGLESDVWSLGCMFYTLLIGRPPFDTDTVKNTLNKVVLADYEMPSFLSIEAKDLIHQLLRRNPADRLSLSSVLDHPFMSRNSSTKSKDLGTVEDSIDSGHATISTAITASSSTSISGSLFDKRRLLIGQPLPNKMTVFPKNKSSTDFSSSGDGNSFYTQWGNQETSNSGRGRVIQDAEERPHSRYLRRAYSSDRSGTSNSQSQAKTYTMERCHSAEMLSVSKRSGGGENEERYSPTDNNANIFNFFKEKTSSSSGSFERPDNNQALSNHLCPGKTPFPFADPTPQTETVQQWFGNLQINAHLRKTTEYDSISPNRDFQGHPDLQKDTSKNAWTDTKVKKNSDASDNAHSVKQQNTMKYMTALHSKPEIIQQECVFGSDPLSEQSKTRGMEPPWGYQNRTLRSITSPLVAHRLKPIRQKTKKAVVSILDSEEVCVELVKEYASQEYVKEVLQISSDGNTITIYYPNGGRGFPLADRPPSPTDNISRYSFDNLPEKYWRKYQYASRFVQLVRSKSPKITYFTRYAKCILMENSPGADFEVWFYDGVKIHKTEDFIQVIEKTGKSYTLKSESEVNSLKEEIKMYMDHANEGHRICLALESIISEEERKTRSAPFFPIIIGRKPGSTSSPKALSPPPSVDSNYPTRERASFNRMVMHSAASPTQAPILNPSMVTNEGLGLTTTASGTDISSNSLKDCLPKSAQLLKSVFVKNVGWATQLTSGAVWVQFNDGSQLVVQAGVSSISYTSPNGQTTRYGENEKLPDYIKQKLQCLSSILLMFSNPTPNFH
Description: as §1

[6] = biological target: T6, ~100 representative kinases (Homo sapiens, UniProt Q86V86); details: protein PIM3; average of three replicates
T6 construct: Recombinant protein kinase domains with a concentration of 2 μM
Description: as §1

[7] = biological target: T7, ~100 representative kinases (Homo sapiens, UniProt P45985); details: protein MAP2K4; average of three replicates
T7 construct: Recombinant protein kinase domains with a concentration of 2 μM
T7 sequence (P45985 1-399): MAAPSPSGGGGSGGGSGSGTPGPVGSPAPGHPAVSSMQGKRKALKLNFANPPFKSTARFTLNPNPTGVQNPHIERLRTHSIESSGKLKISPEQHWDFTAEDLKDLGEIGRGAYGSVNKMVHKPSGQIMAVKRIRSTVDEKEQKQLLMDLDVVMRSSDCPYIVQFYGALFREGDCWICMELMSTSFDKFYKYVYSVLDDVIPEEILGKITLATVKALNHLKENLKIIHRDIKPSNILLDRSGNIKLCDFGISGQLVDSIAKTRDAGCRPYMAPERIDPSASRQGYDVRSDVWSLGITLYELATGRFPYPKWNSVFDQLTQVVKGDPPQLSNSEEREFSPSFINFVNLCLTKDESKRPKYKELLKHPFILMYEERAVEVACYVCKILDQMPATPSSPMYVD
Description: as §1

T2 sequence (O15075 whole entry, the tested form may be a part): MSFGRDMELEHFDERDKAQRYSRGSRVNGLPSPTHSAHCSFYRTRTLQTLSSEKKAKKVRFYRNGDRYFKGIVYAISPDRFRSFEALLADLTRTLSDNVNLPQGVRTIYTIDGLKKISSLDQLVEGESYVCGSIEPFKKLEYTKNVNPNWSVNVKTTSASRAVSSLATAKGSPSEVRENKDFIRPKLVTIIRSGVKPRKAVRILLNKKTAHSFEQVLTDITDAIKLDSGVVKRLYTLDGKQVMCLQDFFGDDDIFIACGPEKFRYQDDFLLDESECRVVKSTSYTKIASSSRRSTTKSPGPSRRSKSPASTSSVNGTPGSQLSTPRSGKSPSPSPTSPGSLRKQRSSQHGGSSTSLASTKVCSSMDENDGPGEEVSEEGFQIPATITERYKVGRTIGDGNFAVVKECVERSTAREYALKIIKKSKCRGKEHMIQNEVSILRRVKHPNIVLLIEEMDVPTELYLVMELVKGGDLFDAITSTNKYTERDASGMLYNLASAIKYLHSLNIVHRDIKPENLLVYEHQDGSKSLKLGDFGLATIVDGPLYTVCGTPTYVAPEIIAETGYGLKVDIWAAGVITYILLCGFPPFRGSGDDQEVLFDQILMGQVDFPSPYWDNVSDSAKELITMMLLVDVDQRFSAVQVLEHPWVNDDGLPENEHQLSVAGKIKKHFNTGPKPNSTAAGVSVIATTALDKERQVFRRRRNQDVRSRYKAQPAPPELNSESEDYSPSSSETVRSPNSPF
T3 sequence (P00519 whole entry, the tested form may be a part): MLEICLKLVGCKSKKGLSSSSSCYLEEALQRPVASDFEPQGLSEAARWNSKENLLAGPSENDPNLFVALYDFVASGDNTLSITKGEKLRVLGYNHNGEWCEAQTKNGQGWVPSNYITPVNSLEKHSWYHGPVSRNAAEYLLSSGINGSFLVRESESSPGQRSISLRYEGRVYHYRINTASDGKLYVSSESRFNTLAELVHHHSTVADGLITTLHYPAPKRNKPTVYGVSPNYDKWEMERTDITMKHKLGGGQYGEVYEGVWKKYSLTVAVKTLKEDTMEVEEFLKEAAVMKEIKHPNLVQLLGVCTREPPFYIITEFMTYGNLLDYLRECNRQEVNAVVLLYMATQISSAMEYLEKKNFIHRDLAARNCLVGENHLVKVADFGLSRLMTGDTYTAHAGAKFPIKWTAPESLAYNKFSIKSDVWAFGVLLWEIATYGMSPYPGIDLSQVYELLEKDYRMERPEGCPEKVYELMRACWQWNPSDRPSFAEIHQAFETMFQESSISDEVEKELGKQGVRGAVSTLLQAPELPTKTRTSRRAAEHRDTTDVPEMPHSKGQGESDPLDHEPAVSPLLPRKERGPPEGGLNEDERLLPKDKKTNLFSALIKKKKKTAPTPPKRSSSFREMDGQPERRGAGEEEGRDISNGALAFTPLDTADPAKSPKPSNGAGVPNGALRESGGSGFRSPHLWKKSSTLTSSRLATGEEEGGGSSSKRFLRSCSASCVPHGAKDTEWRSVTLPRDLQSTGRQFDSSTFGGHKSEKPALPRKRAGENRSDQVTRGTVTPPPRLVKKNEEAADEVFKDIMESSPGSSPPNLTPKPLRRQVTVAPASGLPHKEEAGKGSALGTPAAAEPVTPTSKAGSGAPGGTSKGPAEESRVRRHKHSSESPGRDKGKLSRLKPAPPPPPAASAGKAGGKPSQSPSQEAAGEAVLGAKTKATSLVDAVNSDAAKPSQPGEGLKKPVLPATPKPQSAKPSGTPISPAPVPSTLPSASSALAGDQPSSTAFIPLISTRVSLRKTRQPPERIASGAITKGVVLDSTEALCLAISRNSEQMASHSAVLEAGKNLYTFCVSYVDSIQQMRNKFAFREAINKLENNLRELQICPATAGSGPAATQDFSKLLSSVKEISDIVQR
T1 sequence (P49761 whole entry, the tested form may be a part): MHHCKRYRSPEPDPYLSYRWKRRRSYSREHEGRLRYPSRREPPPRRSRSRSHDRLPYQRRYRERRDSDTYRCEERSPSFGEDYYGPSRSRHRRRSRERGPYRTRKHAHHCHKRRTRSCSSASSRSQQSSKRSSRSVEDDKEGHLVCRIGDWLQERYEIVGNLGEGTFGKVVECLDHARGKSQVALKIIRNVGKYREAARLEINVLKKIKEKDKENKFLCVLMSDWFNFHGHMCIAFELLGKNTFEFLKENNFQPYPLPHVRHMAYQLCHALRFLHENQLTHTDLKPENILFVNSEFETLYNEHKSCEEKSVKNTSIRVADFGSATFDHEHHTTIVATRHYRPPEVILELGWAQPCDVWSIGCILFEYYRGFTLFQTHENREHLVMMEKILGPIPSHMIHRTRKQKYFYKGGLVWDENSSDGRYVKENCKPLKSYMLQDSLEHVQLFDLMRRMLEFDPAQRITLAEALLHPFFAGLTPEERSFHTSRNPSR

SMILES | dTm [1] [K] | dTm [2] [K] | dTm [3] [K] | dTm [4] [K] | dTm [5] [K] | dTm [6] [K] | dTm [7] [K]
Cc1ccc(C(=O)Nc2ccc(CN3CCN(C)CC3)c(C(F)(F)F)c2)cc1C#Cc1c[nH]c2ncnc(N3CCOCC3)c12 [Compound 1] | 4.76 | -0.0556 | 7.59 | 1.18 | 6.48 | 2.19 | 7.64
O=C(Nc1ccc(F)cc1)C1(C(=O)Nc2cccc(-c3c[nH]c4ncnc(N5CCOCC5)c34)c2)CC1 [Compound 2] | 3.15 | 1.25 | 1.47 | 3.91 | 8.51 | -0.94 | 4.96
O=C(Nc1cccc(-c2c[nH]c3ncnc(N4CCOCC4)c23)c1)c1cccn(-c2ccc(F)cc2)c1=O [Compound 4] | 2.86 | 0.57 | 2.49 | 3.88 | 8.52 | 0.41 | 6.40
Cc1cc(NC(=O)C2(C(=O)Nc3ccc(F)cc3)CC2)cc(-c2c[nH]c3ncnc(N4CCOCC4)c23)c1 [Compound 6] | 0.98 | 3.01 | 1.02 | -6.12 | 7.27 | 1.05 | 3.77
O=C(Nc1cccc(-c2c[nH]c3ncnc(N4CCOCC4)c23)c1)C1(C(=O)Nc2cccc3c2CCC3)CC1 [Compound 11] | 1.62 | 2.70 | 1.38 | 0.00 | 7.44 | 0.61 | 5.91
O=C(Nc1ccccc1)C1(C(=O)Nc2cccc(-c3c[nH]c4ncnc(N5CCOCC5)c34)c2)CC1 [Compound 12] | 2.26 | 0.95 | 1.58 | 3.45 | 6.79 | 0.88 | 5.86
O=C(Nc1ccc(Cl)cc1)C1(C(=O)Nc2cccc(-c3c[nH]c4ncnc(N5CCOCC5)c34)c2)CC1 [Compound 13] | 4.87 | 2.89 | 2.64 | 5.82 | 9.01 | 1.90 | 6.61
Cc1ccc(NC(=O)C2(C(=O)Nc3cccc(-c4c[nH]c5ncnc(N6CCOCC6)c45)c3)CC2)cc1 [Compound 14] | 2.40 | -0.07 | 1.79 | 3.97 | 7.55 | 0.71 | 5.95
CCc1ccc(NC(=O)C2(C(=O)Nc3cccc(-c4c[nH]c5ncnc(N6CCOCC6)c45)c3)CC2)cc1 [Compound 15] | 2.88 | 0.05 | 1.94 | 4.84 | 9.77 | 1.24 | 6.81
COc1ccc(NC(=O)C2(C(=O)Nc3cccc(-c4c[nH]c5ncnc(N6CCOCC6)c45)c3)CC2)cc1 [Compound 16] | 0.51 | -1.88 | 1.06 | 2.27 | 4.53 | 0.23 | 3.98
O=C(Nc1cccc(-c2c[nH]c3ncnc(N4CCOCC4)c23)c1)C1(C(=O)Nc2ccc(F)c(F)c2)CC1 [Compound 17] | 3.44 | 1.90 | 1.22 | 3.95 | 9.62 | 1.09 | 5.80
O=C(Nc1cccc(-c2c[nH]c3ncnc(N4CCOCC4)c23)c1)C1(C(=O)Nc2ccc(F)c(Cl)c2)CC1 [Compound 18] | 4.42 | 2.36 | 2.25 | 4.93 | 7.28 | 1.00 | 6.47
O=C(Nc1cccc(-c2c[nH]c3ncnc(N4CCOCC4)c23)c1)C1(C(=O)Nc2ccc(F)c(Br)c2)CC1 [Compound 19] | 5.09 | 4.80 | 1.83 | 5.43 | 0.00 | -0.34 | 6.16
Cc1cc(NC(=O)C2(C(=O)Nc3cccc(-c4c[nH]c5ncnc(N6CCOCC6)c45)c3)CC2)ccc1F [Compound 20] | 5.99 | 2.29 | 2.29 | 6.75 | 12.28 | 1.71 | 7.49
COc1cc(NC(=O)C2(C(=O)Nc3cccc(-c4c[nH]c5ncnc(N6CCOCC6)c45)c3)CC2)ccc1F [Compound 21] | 3.11 | 1.25 | 1.21 | 4.12 | 10.46 | -0.0363 | 6.42
Cc1ccc(C(=O)Nc2ccc(CN3CCN(C)CC3)c(C(F)(F)F)c2)cc1C#Cc1cnc2cccnn12 [Ponatinib, reference compound] | – | – | – | -0.48 | – | – | –
CNC(=O)c1cc(Oc2ccc(NC(=O)Nc3cc(C(C)(C)C)nn3-c3ccc4ncccc4c3)c(F)c2)ccn1 [Rebastinib, reference compound] | 8.68 | 3.67 | – | 2.04 | 6.17 | 6.29 | 0.53
CN[C@@H]1C[C@H]2O[C@@](C)([C@@H]1OC)n1c3ccccc3c3c4c(c5c6ccccc6n2c5c31)C(=O)NC4 [Staurosporine] | – | 12.74 | – | 15.90 | 19.68 | 16.71 | –
